The source made the active and inactive calls.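 How the source made its calls: active means half-effect concentration at most 10 µM with response change of 30% or more and an acceptable curve fit; inactive means the rest.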
Target: GTPase HRas (Homo sapiens) (UniProt P01112)
Assay: Ras wild-type GTP-binding inhibitors, SAR follow-up, selectivity assay for Cdc42 probe extension project, biochemical, multiplex bead flow cytometry, round 1 (AID 588383)
Conditions: GST-Ras wt beads, Bodipy-FL-GTP binding; for % response, lower = inhibition: at 100 µM (top of the series)

Chain of GTPase HRas (Homo sapiens) (P01112 whole entry, looked up): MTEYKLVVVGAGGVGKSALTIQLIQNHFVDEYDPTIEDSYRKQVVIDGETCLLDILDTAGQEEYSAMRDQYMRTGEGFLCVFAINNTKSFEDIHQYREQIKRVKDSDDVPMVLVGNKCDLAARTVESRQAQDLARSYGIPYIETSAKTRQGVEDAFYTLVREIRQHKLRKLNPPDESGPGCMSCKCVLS

SMILES | EC50 [nM] | % response, lower = inhibition
CC1(C)Cc2c(sc(NC(=S)NC(=O)c3ccccc3)c2C(=O)O)CO1 | 78 | –
NS(=O)(=O)c1ccc(N2N=C(c3ccccc3)CC2c2ccccc2)cc1 (centres undefined) | – | inactive
COc1ccc(C2CC(c3ccccc3)=NN2c2ccc(S(N)(=O)=O)cc2)cc1 (centres undefined) | – | inactive
O=C(C#Cc1ccccc1)c1cccc([N+](=O)[O-])c1 | – | inactive
